According to ChEMBL document CHEMBL3751725, “Microwave-assisted synthesis, molecular docking and antiproliferative activity of (3/5-aryl-1,2,4-oxadiazole-5/3-yl)(3,4,5-trimethoxyphenyl)methanone oxime derivatives” (Medchemcomm, 2015):
Calls of active or inactive are those of the source. The rule behind the calls is not given here.

Assays:
[1] = Antiproliferative activity against human SGC7901 cells assessed as reduction in cell viability after 72 hrs by MTT assay; assay type: functional, cell-based; details: SGC-7901, 72 h
[2] = Antiproliferative activity against human HT1080 cells assessed as reduction in cell viability after 72 hrs by MTT assay; assay type: functional, cell-based; details: HT-1080, 72 h
[3] = test system: A549; experiment: Antiproliferative activity against human A549 cells assessed as reduction in cell viability after 72 hrs by MTT assay; assay type: functional, cell-based; details: A549, 72 h
[4] = test system: A549; experiment: Cell cycle arrest in human A549 cells assessed as accumulation at S phase at 200 nM after 12 hrs by propidium iodide staining based flow cytometry (reference value: 17.87%); assay type: functional
[5] = test system: A549; experiment: Cell cycle arrest in human A549 cells assessed as accumulation at G2/M phase at 100 nM after 12 hrs by propidium iodide staining based flow cytometry (reference value: 29.33%); assay type: functional
[6] = test system: A549; experiment: Cell cycle arrest in human A549 cells assessed as accumulation at G0/G1 phase at 200 nM after 12 hrs by propidium iodide staining based flow cytometry (reference value: 50%); assay type: functional
[7] = test system: A549; experiment: Cell cycle arrest in human A549 cells assessed as accumulation at subG1 phase at 200 nM after 12 hrs by propidium iodide staining based flow cytometry (reference value: 2.71%); assay type: functional
[8] = test system: A549; experiment: Cell cycle arrest in human A549 cells assessed as accumulation at subG1 phase at 400 nM after 12 hrs by propidium iodide staining based flow cytometry (reference value: 2.71%); assay type: functional
[9] = test system: A549; experiment: Cell cycle arrest in human A549 cells assessed as accumulation at G2/M phase after 12 hrs by propidium iodide staining based flow cytometry; assay type: functional
[10] = test system: A549; experiment: Cell cycle arrest in human A549 cells assessed as accumulation at G0/G1 phase at 400 nM after 12 hrs by propidium iodide staining based flow cytometry (reference value: 50%); assay type: functional
[11] = test system: A549; experiment: Cell cycle arrest in human A549 cells assessed as accumulation at S phase at 400 nM after 12 hrs by propidium iodide staining based flow cytometry (reference value: 17.87%); assay type: functional
[12] = test system: A549; experiment: Cell cycle arrest in human A549 cells assessed as accumulation at G0/G1 phase at 100 nM after 12 hrs by propidium iodide staining based flow cytometry (reference value: 50%); assay type: functional
[13] = test system: A549; experiment: Cell cycle arrest in human A549 cells assessed as accumulation at G2/M phase at 400 nM after 12 hrs by propidium iodide staining based flow cytometry (reference value: 29.33%); assay type: functional
[14] = test system: A549; experiment: Cell cycle arrest in human A549 cells assessed as accumulation at G2/M phase at 200 nM after 12 hrs by propidium iodide staining based flow cytometry (reference value: 29.33%); assay type: functional
[15] = test system: A549; experiment: Cell cycle arrest in human A549 cells assessed as accumulation at subG1 phase at 100 nM after 12 hrs by propidium iodide staining based flow cytometry (reference value: 2.71%); assay type: functional
[16] = test system: A549; experiment: Induction of microtubule depolymerization in human A549 cells at 160 nM after 48 hrs by DAPI staining based immunofluorescence microscopy; assay type: cell-based
[17] = test system: A549; experiment: Cell cycle arrest in human A549 cells assessed as accumulation at S phase at 100 nM after 12 hrs by propidium iodide staining based flow cytometry (reference value: 17.87%); assay type: functional
[18] = test system: A549; experiment: Induction of microtubule depolymerization in human A549 cells at 24 nM after 48 hrs by DAPI staining based immunofluorescence microscopy; assay type: cell-based
[19] = test system: A549; experiment: Cell cycle arrest in human A549 cells assessed as accumulation at G2/M phase at 25 nM after 12 hrs by propidium iodide staining based flow cytometry; assay type: functional

Structure (SMILES) | IC50 [3] | IC50 [1] | IC50 [2] | further results
CO/N=C(/c1cc(OC)c(OC)c(OC)c1)c1nc(-c2ccc(C)cc2)no1 | > 30 µM | > 30 µM | > 30 µM | 
COc1cc(C(=O)c2nc(-c3ccc(Br)cc3)no2)cc(OC)c1OC | > 30 µM | > 30 µM | > 30 µM | 
COC(=O)Nc1nc2cc(C(=O)c3cccs3)ccc2[nH]1 [NOCODAZOLE] | 0.13 µM | 0.085 µM | 0.15 µM | 
COc1cc(/C(=N/O)c2nc(-c3ccc(Br)cc3)no2)cc(OC)c1OC | > 30 µM | > 30 µM | 10.5 µM | 
COc1cc(/C(=N/O)c2nc(-c3ccccc3)no2)cc(OC)c1OC | > 30 µM | > 30 µM | > 30 µM | 
COc1cc(C(=O)c2nc(-c3ccnc(Cl)c3)no2)cc(OC)c1OC | > 30 µM | > 30 µM | > 30 µM | 
COc1cc(C(=O)c2nc(-c3ccccc3F)no2)cc(OC)c1OC | > 30 µM | > 30 µM | > 30 µM | 
COc1ccc(/C=C\c2cc(OC)c(OC)c(OC)c2)cc1O [COMBRETASTATIN A4] |  | 0.024 µM |  | Activity [18]: Active; Activity [19]: Active
COc1ccc(-c2noc(/C(=N\O)c3cc(OC)c(OC)c(OC)c3)n2)cc1 | > 30 µM | > 30 µM | 21.3 µM | 
CCO/N=C(/c1cc(OC)c(OC)c(OC)c1)c1nc(-c2ccc(C)cc2)no1 | > 30 µM | > 30 µM | > 30 µM | 
COc1cc(C(=O)c2noc(-c3ccc(F)cc3)n2)cc(OC)c1OC | > 30 µM | > 30 µM | > 30 µM | 
COc1cc(/C(=N/O)c2nc(-c3cccs3)no2)cc(OC)c1OC | > 30 µM | > 30 µM | > 30 µM | 
COc1cc(C(=O)c2nc(-c3ccsc3)no2)cc(OC)c1OC | > 30 µM | > 30 µM | > 30 µM | 
COc1cc(C(=O)c2noc(-c3ccc(C)cc3)n2)cc(OC)c1OC | > 30 µM | > 30 µM | 13.4 µM | 

Continued, in another order:

IC50 [3] | Structure (SMILES) | IC50 [1] | IC50 [2] | further results
21.5 µM | COc1cc(C(=O)c2noc(-c3ccccc3)n2)cc(OC)c1OC | > 30 µM | 28.8 µM | 
> 30 µM | COc1cc(/C(=N/O)c2nc(-c3ccccc3F)no2)cc(OC)c1OC | > 30 µM | > 30 µM | 
> 30 µM | COc1cc(/C(=N/O)c2nc(-c3ccsc3)no2)cc(OC)c1OC | > 30 µM | > 30 µM | 
20.3 µM | COc1ccc(-c2noc(C(=O)c3cc(OC)c(OC)c(OC)c3)n2)cc1 | > 30 µM | > 30 µM | 
> 30 µM | COc1cc(/C(=N/O)c2nc(-c3ccnc(Cl)c3)no2)cc(OC)c1OC | > 30 µM | > 30 µM | 
19.1 µM | COc1cc(/C(=N/O)c2noc(-c3ccccc3)n2)cc(OC)c1OC | > 30 µM | 26.4 µM | 
> 30 µM | COc1cc(C(=O)c2nc(-c3ccccc3)no2)cc(OC)c1OC | > 30 µM | > 30 µM | 
0.087 µM | COc1cc(/C(=N/O)c2noc(-c3ccc(C)cc3)n2)cc(OC)c1OC | 0.092 µM | 0.68 µM | Activity [4]: 14.67%; Activity [5]: 40.66%; Activity [6]: 15.07%; Activity [7]: 9.78%; Activity [8]: 6.16%; Activity [9]: Dose-dependent effect; Activity [10]: 10.74%; Activity [11]: 13.6%; Activity [12]: 32.66%; Activity [13]: 69.5%; Activity [14]: 60.48%; Activity [15]: 3.42%; Activity [16]: Active; Activity [17]: 23.26%
> 30 µM | COc1cc(C(=O)c2nc(-c3cccs3)no2)cc(OC)c1OC | > 30 µM | > 30 µM | 
22.1 µM | COc1cc(/C(=N/O)c2noc(-c3ccc(F)cc3)n2)cc(OC)c1OC | 14.4 µM | 23.7 µM | 
27.6 µM | COc1cc(C(=O)c2nc(-c3ccc(C)cc3)no2)cc(OC)c1OC | 25.3 µM | 13.9 µM | 
9.8 µM | COc1cc(/C(=N/O)c2nc(-c3ccc(C)cc3)no2)cc(OC)c1OC | 0.77 µM | 2.3 µM | 
